Data from patent publication US10519211B2, “Compounds as peptidic GLP1/glucagon/GIP receptor agonists” (SANOFI, priority 2016, dated 2019).
Numbered stars: 1 amine (or outer) side, 2 acyl side, 3 side chain; on linkers, the order of the positions; unused ones are H or OH. Square brackets hold non-standard residues; d marks the D form. Side chains are listed from the residue outwards. Peptide text beside a SMILES is read from it. * marks the point of attachment. Adipoyl(4R-palmitoylamino) = CCCCCCCCCCCCCCCC(=O)N[C@H](CCC(=O)*)CC(=O)O; γGlu = O=C(O)[C@H](CCC(=O)[*:2])N[*:1]; Palmitoyl = CCCCCCCCCCCCCCCC(=O)*; AEEA = NCCOCCOCC(=O)O; Aib = CC(C)(N)C(=O)O

What was measured:
[1] = target: T1, human GLP-1 receptor (hGLP-1 R) (Homo sapiens, UniProt P43220); experiment: cAMP response (HTRF) of HEK-293 cells stably expressing human GLP-1 receptor; type: cell-based; conditions: Table 8; cAMP formation
T1 construct: expressed in transfected cells; host or cells: HEK-293
T1 sequence (P43220 24-463): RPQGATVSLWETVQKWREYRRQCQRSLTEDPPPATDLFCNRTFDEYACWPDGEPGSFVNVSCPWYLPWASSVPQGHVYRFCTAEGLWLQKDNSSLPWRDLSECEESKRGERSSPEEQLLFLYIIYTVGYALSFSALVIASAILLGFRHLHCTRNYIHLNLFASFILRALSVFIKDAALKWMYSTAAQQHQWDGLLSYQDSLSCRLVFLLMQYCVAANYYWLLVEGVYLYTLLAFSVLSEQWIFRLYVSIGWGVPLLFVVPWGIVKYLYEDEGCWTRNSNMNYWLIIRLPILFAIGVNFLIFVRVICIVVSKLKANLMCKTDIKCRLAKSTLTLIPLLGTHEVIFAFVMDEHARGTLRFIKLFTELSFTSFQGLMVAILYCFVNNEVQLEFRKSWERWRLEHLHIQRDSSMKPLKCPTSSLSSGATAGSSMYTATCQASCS
Protocol: (§1) cAMP content of cells was determined using a kit from Cisbio Corp. (cat. no. 62AM4PEJ) based on HTRF (Homogenous Time Resolved Fluorescence). For preparation, cells were split into T175 culture flasks and grown overnight to near confluency in medium (DMEM/10% FBS). Medium was then removed and cells washed with PBS lacking calcium and magnesium, followed by proteinase treatment with accutase (Sigma-Aldrich cat. no. A6964). Detached cells were washed and resuspended in assay buffer (1×HBSS; 20 mM HEPES, 0.1% BSA, 2 mM IBMX) and cellular density determined. They were then diluted to 400000 cells/ml and 25 μl-aliquots dispensed into the wells of 96-well plates. For measurement, 25 μl of test compound in assay buffer was added to the wells, followed by incubation for 30 minutes at room temperature.
(§2) Potencies of peptidic compounds at the GLP-1, glucagon and GIP receptors were determined by exposing cells expressing human glucagon receptor (hGlucagon R), human GIP receptor (hGIP-R) or human GLP-1 receptor (hGLP-1 R) to the listed compounds at increasing concentrations and measuring the formed cAMP as described in Methods.

[2] = Thioflavin T (ThT) assay for physical stability (fibrillation); type: physicochemical; conditions: 3 mg/ml, 100 mM acetate pH 4.5 with m-cresol, shaking at 37° C.
Protocol: Investigations were carried out to determine fibrillation tendencies under stress conditions by shaking at 37° C. within Fluoroskan Ascent FL.
For the tests in Fluoroskan Ascent FL, 200 μL sample were placed into a 96 well mictrotiter plate PS, flat bottom, Greiner Fluotrac No. 655076. Plates were sealed with Scotch Tape (Quiagen). Samples were stressed by continuous cycles of 10 s shaking at 960 rpm and 50 s rest period at 37° C. The kinetic was monitored by measuring fluorescence intensity every 20 minutes.
Peptides were diluted in a buffer system to a final concentration of 3 mg/ml. 20 μL of a 10.1 mM ThT solution in H2O were added to 2 mL of peptide solution to receive a final concentration of 100 μM ThT. For each sample eight replicates were tested.
Tht buffer system A) 100 mM Acetate pH 4.5 including m-cresol (100 mM Natriumacetat trihydrat, pH adjustment using 2N CH3COOH, 2.7 mg/mL m-cresol) Tht buffer system B) 100 mM citrate buffer pH 6.0
Lag time in hours in Thioflavin T (ThT) assay of peptide samples was determined in Tht buffer system A as described in Methods.

[3] = target: T2, human GIP receptor (hGIP-R) (Homo sapiens, UniProt P48546); experiment: cAMP response (HTRF) of HEK-293 cells stably expressing human GIP receptor; type: cell-based; conditions: Table 8; cAMP formation
T2 construct: expressed in transfected cells; host or cells: HEK-293
T2 sequence (P48546 22-466): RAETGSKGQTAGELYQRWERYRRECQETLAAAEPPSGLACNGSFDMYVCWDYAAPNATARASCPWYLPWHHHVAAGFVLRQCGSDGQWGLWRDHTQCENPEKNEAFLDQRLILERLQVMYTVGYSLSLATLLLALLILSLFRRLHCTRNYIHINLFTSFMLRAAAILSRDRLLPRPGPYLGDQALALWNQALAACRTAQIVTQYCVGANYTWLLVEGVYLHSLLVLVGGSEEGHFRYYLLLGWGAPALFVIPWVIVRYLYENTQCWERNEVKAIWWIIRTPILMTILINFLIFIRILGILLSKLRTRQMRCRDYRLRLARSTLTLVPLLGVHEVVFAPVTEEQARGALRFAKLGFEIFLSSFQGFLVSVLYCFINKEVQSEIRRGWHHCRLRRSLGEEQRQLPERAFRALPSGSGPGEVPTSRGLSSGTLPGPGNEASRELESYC
Protocol: as §1, §2

[4] = Chemical stability assessment (UPLC-UV, relative purity loss); type: physicochemical; conditions: 1 mg/ml, 25 mM acetate buffer pH 4.5 with m-cresol (buffer system A)
Protocol: Prior to the chemical stability measurement of a peptide batch, its purity was determined through UPLC/MS. For stability testing the target concentration was 1 mg pure compound/ml. Therefore solutions from solid samples were prepared in a buffer system with a concentration of 1 mg/mL compound based on the previously determined % purity:
Chemical stability buffer system A) 25 mM acetate buffer pH4.5, 3 mg/mL L-Methionine, 2.7 mg/mL m-cresol, 18 mg/mL Glycerol 85%
Peptide solutions were filtered through […] pore size and filled into aliquots under aseptic conditions. At starting point UPLC-UV was performed by injection of 2 μl of the undiluted sample.
For chemical stability testing, aliquots were stored for 28 days at Sand 40° C. After this time course the samples were centrifuged for 15 min at 2500 RCF. Then 2 μl of the undiluted supernatant were analysed with UPLC-UV.
The chemical stability was rated through the relative loss of purity calculated by the equation: [(purity at starting point)−(purity after 28 days at X° C.)]/(purity at starting point)]*100%
The purity is calculated as [(peak area peptide)/(total peak area)]*100%
Peptide samples were prepared in Chemical stability buffer system A and chemical stability was assessed as described in Methods.

[5] = Solubility assessment (UPLC-UV); type: physicochemical; conditions: acetate buffer pH 4.5, 2.7 mg/ml m-cresol (buffer system A), target 10 mg/ml
Protocol: Prior to the solubility measurement of a peptide batch, its purity was determined through UPLC/MS.
Therefore solutions from solid samples were prepared in a buffer systems with a concentration of 10 mg/mL compound based on the previously determined % purity:
Solubility buffer system A) Acetate Buffer pH 4.5, 100 mM sodium acetate trihydrate, 2.7 mg/ml m-Cresol
UPLC-UV was performed after 1 hour of gentle agitation from the supernatant, which was obtained after 15 min of centrifugation at 2500 RCF (relative centrifugal acceleration).
The solubility was determined by the comparison of the UV peak area of 2 μL-injection of a buffered sample diluted 1:10 with a standard curve of a reference peptide with known concentration. The different UV extinction coefficients of sample and reference peptide were calculated based on the different amino acid sequences and considered in the concentration calculation.
Peptide samples were prepared in solubility buffer system A and solubility was assessed as described in Methods.

[6] = Dynamic light scattering (DLS), hydrodynamic radius as surrogate for interaction parameter kD; type: physicochemical
Protocol: For every peptide solution, the hydrodynamic radius Rh and the diffusion constant D (related via the Stokes-Einstein equation) were determined as an average over triplicates. Both parameters were determined at different concentrations (e.g., Rh1 and D1: 1 mg/ml and Rh5 and D5: 5 mg/ml) in the same buffer system. The difference of these parameters between low and high peptide concentration is a surrogate for the DLS interaction parameter kD. Rh5<Rh1 or D5>D1 correspond to kD>0 and therefore to repulsive inter-particle interactions that result in improved physical (or colloidal) stability.
DLS buffer system A) 25 mM acetate buffer pH4.5, 3 mg/mL L-Methionine, 2.7 mg/mL m-cresol, 18 mg/mL Glycerol 85%
DLS Method C: DLS measurements were performed on a DynaPro Plate Reader II (Wyatt Technology, Santa Barbara, Calif., US) and using one of the following black, low volume, and non-treated plates: polystyrene 384 assay plate with clear bottom (Corning, N.Y., US), polystyrene 96 assay plate with clear bottom (Corning, N.Y., US), cyclo olefin polymer (COP) 384 assay plate with clear bottom (Aurora, Mont., US), or polystyrene 384 assay plate with clear bottom (Greiner Bio-One, Germany). The data were processed with the Dynamics software provided by Wyatt Technology. Parameters of the particle size distribution were determined with non-negatively constrained least squares (NNLS) methods using DynaLS algorithms. Measurements were taken at 25° C. with an 830 nm laser light source at an angle of 158°.
The hydrodynamic radius radius Rh of peptide samples was determined at different peptide concentrations (1 mg/ml and 5 mg/ml) in DLS buffer system A using DLS method C as described in Methods as surrogate for the DLS interaction parameter kD.

Row | Compound | EC50 [1] | Lag time before increase [2] | EC50 [3] | Chemical stability [relative purity loss 28 days 40° C.] (%) at pH 4.5 [4] | solubility at 1 h [5] | Delta Rh [nm] = Rh5 − Rh1 ([6]; DLS buffer system A pH 4.5) | Rh1 [nm] c= 1 mg/ml ([6]; hydrodynamic radius, 1 mg/ml, DLS buffer system A pH 4.5, DLS method C, 25° C.) | Rh5 [nm] c = 5 mg/ml ([6]; hydrodynamic radius, 5 mg/ml, DLS buffer system A pH 4.5, DLS method C, 25° C.)
1 | CCCCCCCCCCCCCCCC(=O)N[C@H](CCC(=O)NCCOCCOCC(=O)N[C@@H](CCC(=O)NCCCC[C@H](NC(=O)[C@H](CC(C)C)NC(=O)[C@H](CCCCN)NC(=O)[C@H](CO)NC(=O)[C@H](CC(C)C)NC(=O)[C@H](CC(=O)O)NC(=O)[C@H](CO)NC(=O)[C@@H](NC(=O)[C@H](Cc1ccccc1)NC(=O)[C@@H](NC(=O)CNC(=O)[C@H](CCC(N)=O)NC(=O)C(C)(C)NC(=O)[C@@H](N)Cc1c[nH]cn1)[C@@H](C)O)[C@@H](C)O)C(=O)N[C@@H](CCC(=O)O)C(=O)N[C@@H](CCCCN)C(=O)N[C@@H](CCC(N)=O)C(=O)N[C@@H](CCCNC(=N)N)C(=O)N[C@@H](CCC(N)=O)C(=O)NC(C)(C)C(=O)N[C@@H](CCC(=O)O)C(=O)N[C@@H](Cc1ccccc1)C(=O)N[C@H](C(=O)N[C@@H](CCC(=O)O)C(=O)N[C@@H](Cc1c[nH]c2ccccc12)C(=O)N[C@@H](CC(C)C)C(=O)N[C@@H](CCCCN)C(=O)N[C@@H](C)C(=O)NCC(=O)NCC(=O)N[C@@H](Cc1c[nH]cn1)C(=O)N1CCC[C@H]1C(=O)N[C@@H](CO)C(=O)NC(C)(C)C(=O)N[C@@H](CCCCN)C(=O)N1CCC[C@H]1C(=O)N1CCC[C@H]1C(=O)N1CCC[C@H]1C(=O)N[C@@H](CCCCN)C(N)=O)[C@@H](C)CC)C(=O)O)CC(=O)O [SEQ ID NO: 20, H-Aib-Q-G-T-F-T-S-D-L-S-K-L-K[gGlu-AEEA-gAAA-Palm]-E-K-Q-R-Q-Aib-E-F-I-E-W-L-K-A-G-G-H-P-S-Aib-K-P-P-P-K-NH2] (H-H[Aib]QGTFTSDLSKLK([γGlu-AEEA-Adipoyl(4R-palmitoylamino)])EKQRQ[Aib]EFIEWLKAGGHPS[Aib]KPPPK-NH2) | 2.4 pM | >45 h |  |  |  |  |  | 
2 | CCCCCCCCCCCCCCCC(=O)NCCOCCOCC(=O)N[C@@H](CCC(=O)N[C@@H](CCC(=O)NCCCC[C@H](NC(=O)[C@H](CC(C)C)NC(=O)[C@H](CCCCN)NC(=O)[C@H](CO)NC(=O)[C@H](CC(C)C)NC(=O)[C@H](CC(=O)O)NC(=O)[C@H](CO)NC(=O)[C@@H](NC(=O)[C@H](Cc1ccccc1)NC(=O)[C@@H](NC(=O)CNC(=O)[C@H](CCC(N)=O)NC(=O)C(C)(C)NC(=O)[C@@H](N)Cc1c[nH]cn1)[C@@H](C)O)[C@@H](C)O)C(=O)N[C@@H](CCC(=O)O)C(=O)N[C@@H](CCC(=O)O)C(=O)N[C@@H](CCC(N)=O)C(=O)N[C@@H](CCCNC(=N)N)C(=O)N[C@@H](CCC(N)=O)C(=O)NC(C)(C)C(=O)N[C@@H](CCC(=O)O)C(=O)N[C@@H](Cc1ccccc1)C(=O)N[C@H](C(=O)N[C@@H](CCC(=O)O)C(=O)N[C@@H](Cc1c[nH]c2ccccc12)C(=O)N[C@@H](CC(C)C)C(=O)N[C@@H](CCCCN)C(=O)N[C@@H](C)C(=O)N[C@H](C)C(=O)NCC(=O)N[C@@H](Cc1c[nH]cn1)C(=O)N1CCC[C@H]1C(=O)N[C@@H](CO)C(=O)NC(C)(C)C(=O)N[C@@H](CCCCN)C(=O)N1CCC[C@H]1C(=O)N1CCC[C@H]1C(=O)N1CCC[C@H]1C(=O)N[C@@H](CCCCN)C(N)=O)[C@@H](C)CC)C(=O)O)C(=O)O [SEQ ID NO: 19, H-Aib-Q-G-T-F-T-S-D-L-S-K-L-K[gGlu-gGlu-AEEA-Palm]-E-E-Q-R-Q-Aib-E-F-I-E-W-L-K-A-dAla-G-H-P-S-Aib-K-P-P-P-K-NH2] (H-H[Aib]QGTFTSDLSKLK([γGlu-γGlu-AEEA-Palmitoyl])EEQRQ[Aib]EFIEWLKA[dA]GHPS[Aib]KPPPK-NH2) |  | >45 h | 7.9 pM | 6.0% | > 9200 µg/mL | −0.1 nm | 3.1 nm | 3.0 nm
